Values after ≈ are worked out from the molar mass of the structure shown. Values joined by “and” are separate entries in the source; they are usually repeats but may differ in a detail not shown here. Identical values can stand only once. Each block holds one molecule with its values, some of them ahead of it.
Legend:
Assay in all cases: ≥ marks a high value that may be exact or a test limit, other limits are often not marked, values filed in µg/mL are converted to µM
[1] = system: Colletotrichum graminicola
Rhizoctonia solani = system: Rhizoctonia solani
[2] = system: Escherichia coli ATCC 25922
[3] = system: Staphylococcus aureus ATCC 25923
Fusarium oxysporum = system: Fusarium oxysporum
[4] = system: Enterococcus faecalis ATCC 29212
[5] = system: Enterobacter cloacae HNTCC 53001
[6] = system: Candida albicans ATCC 90028
[7] = system: Pseudomonas aeruginosa ATCC 27853
[8] = system: Staphylococcus epidermidis RP62A
[9] = system: Proteus mirabilis ATCC 25933
[10] = system: Klebsiella pneumoniae KK3 9904
[11] = system: Staphylococcus aureus NCTC 8325
Bacillus subtilis L170 = system: Bacillus subtilis L170
[12] = system: Escherichia coli DH5alpha
[13] = system: Bacillus subtilis DSM 357
Escherichia coli LWF+ = system: Escherichia coli LWF+
[14] = system: Burkholderia cepacia J2540
Escherichia coli JM109 = system: Escherichia coli JM109
[15] = system: Pseudomonas putida GPp104
Cupriavidus necator H16 = system: Cupriavidus necator H16
[16] = system: Escherichia coli BL21(DE3)
[17] = system: Staphylococcus aureus DSM 1104
[18] = system: Listeria monocytogenes ATCC 19111
[19] = system: Listeria monocytogenes ATCC 19114
[20] = system: Pseudomonas aeruginosa DSM 1117
[21] = system: Listeria monocytogenes ATCC 19112
[22] = system: Escherichia coli DSM 1103
[23] = system: Staphylococcus aureus ATCC BAA-1717
[24] = system: Staphylococcus epidermidis DSM 1798
[25] = system: Escherichia coli ATCC BAA-1025
[26] = system: Listeria monocytogenes F4244
[27] = system: Pseudomonas aeruginosa ATCC 47085
[28] = system: Klebsiella pneumoniae ATCC 27736
[29] = system: Staphylococcus aureus ATCC 25904
[30] = system: Lactiplantibacillus plantarum ATCC 14917
[31] = system: Enterococcus faecalis JCM 5803T
[32] = system: Listeria innocua ATCC 33090T
[33] = system: Latilactobacillus sakei subsp. sakei JCM 1157T

SMILES: CC(C)[C@H](NC(=O)[C@@H]1CCCN1C(=O)[C@@H](N)Cc1ccccc1)C(=O)N[C@H](C(=O)N[C@@H](Cc1c[nH]c2ccccc12)C(=O)N1CCC[C@H]1C(=O)N[C@H](C(=O)N[C@@H](CCCCN)C(=O)N[C@@H](Cc1c[nH]c2ccccc12)C(=O)N[C@@H](Cc1c[nH]c2ccccc12)C(=O)N[C@@H](CCCCN)C(=O)NCC(N)=O)[C@@H](C)O)[C@@H](C)O [FPVTWPTKWWKG]
MIC [1]: ≥ 163 µM
MIC (Rhizoctonia solani): ≥ 41.8 µM
MIC [2]: > 125 µM and 163 µM
MIC [3]: > 125 µM and 163 µM
MIC (Fusarium oxysporum): ≥ 163 µM

SMILES: CC(C)C[C@H](NC(=O)[C@H](C)NC(=O)[C@H](CC(C)C)NC(=O)[C@H](CCCCN)NC(=O)[C@H](Cc1c[nH]c2ccccc12)NC(=O)[C@H](C)NC(=O)[C@H](CCCCN)NC(=O)[C@H](CC(C)C)NC(=O)[C@H](C)NC(=O)[C@H](CC(C)C)NC(=O)[C@H](CCCCN)NC(=O)[C@H](CC(C)C)NC(=O)[C@H](C)NC(=O)[C@H](CC(C)C)NC(=O)[C@@H](N)CCCCN)C(=O)N[C@@H](CCCCN)C(=O)N[C@@H](C)C(=O)N[C@@H](C)C(N)=O [KLALKLALKAWKLALKAA]
MIC (Bacillus subtilis L170): 1.6 µM (≈ 3.12 µg/mL)
MIC [12]: 5.2 µM (≈ 10.1 µg/mL)
MIC [13]: 1.6 µM (≈ 3.12 µg/mL)
MIC (Escherichia coli LWF+): 10 µM (≈ 19.5 µg/mL)

SMILES: CC[C@H](C)[C@H](NC(=O)[C@H](CCCCN)NC(=O)[C@H](CCCCN)NC(=O)[C@H](Cc1ccccc1)NC(=O)[C@H](CC(C)C)NC(=O)[C@H](CCCCN)NC(=O)[C@H](Cc1c[nH]c2ccccc12)NC(=O)[C@@H](N)CCCCN)C(=O)N[C@@H](Cc1ccccc1)C(=O)N[C@@H](CCCCN)C(=O)N[C@@H](CCCN=C(N)N)C(=O)N[C@H](C(=O)N[C@H](C(=O)N[C@@H](CCC(N)=O)C(=O)N[C@@H](CCCN=C(N)N)C(=O)N[C@H](C(=O)N[C@@H](CCCCN)C(=O)N[C@@H](CC(=O)O)C(=O)N[C@@H](Cc1ccccc1)C(=O)N[C@@H](CC(C)C)C(=O)N[C@@H](CCCN=C(N)N)C(=O)O)[C@@H](C)CC)C(C)C)[C@@H](C)CC [KWKLFKKIFKRIVQRIKDFLR]
MIC [14]: 11.2 µM (≈ 31.3 µg/mL)

More lines, main results first:

MIC [4]: > 80 µM
MIC [5]: 2.5 µM (≈ 6.78 µg/mL)
MIC [6]: ≥ 80 µM
MIC [7]: 5 µM (≈ 13.6 µg/mL)
MIC [8]: 10 µM (≈ 27.1 µg/mL)
MIC [9]: ≥ 80 µM
MIC [10]: 5 µM (≈ 13.6 µg/mL)
MIC [2]: 5 µM (≈ 13.6 µg/mL)
MIC [11]: 20 µM (≈ 54.2 µg/mL)
SMILES: CC[C@H](C)[C@H](NC(=O)CNC(=O)[C@H](CCCCN)NC(=O)[C@H](Cc1ccccc1)NC(=O)[C@@H](NC(=O)[C@H](CCCCN)NC(=O)[C@H](CCCCN)NC(=O)[C@H](CC(C)C)NC(=O)[C@H](C)NC(=O)[C@H](CCCCN)NC(=O)[C@H](CC(C)C)NC(=O)CN)C(C)C)C(=O)N[C@@H](Cc1cnc[nH]1)C(=O)N[C@@H](CCCCN)C(=O)N[C@@H](C)C(=O)N[C@H](C(=O)N[C@@H](CCCCN)C(=O)N[C@@H](CC(C)C)C(=O)N[C@H](C(=O)N[C@@H](CC(N)=O)C(=O)N[C@@H](CCCCN)C(=O)N[C@@H](Cc1cnc[nH]1)C(=O)N[C@H](C(=O)N[C@@H](CCC(N)=O)C(=O)O)C(C)C)[C@@H](C)CC)[C@@H](C)CC [GLKALKKVFKGIHKAIKLINKHVQ]

MIC (Escherichia coli JM109): 10 µM (≈ 22.1 µg/mL)
MIC [15]: 12.5 µM (≈ 27.6 µg/mL)
MIC (Cupriavidus necator H16): ≥ 50 µM
MIC [16]: 1.25 µM (≈ 2.76 µg/mL)
SMILES: CC[C@H](C)[C@H](NC(=O)[C@H](Cc1ccc(O)cc1)NC(=O)[C@@H](NC(=O)[C@@H]1CCCN1C(=O)[C@H](CCCN=C(N)N)NC(=O)[C@H](CC(N)=O)NC(=O)[C@H](CC(C)C)NC(=O)[C@@H](N)CCCN=C(N)N)C(C)C)C(=O)N1CCC[C@H]1C(=O)N[C@@H](CCC(N)=O)C(=O)N1CCC[C@H]1C(=O)N[C@@H](CCCN=C(N)N)C(=O)N1CCC[C@H]1C(=O)N1CCC[C@H]1C(=O)N[C@@H](Cc1cnc[nH]1)C(=O)N1CCC[C@H]1C(=O)N[C@@H](CCCN=C(N)N)C(=O)N[C@@H](CC(C)C)C(=O)O [RLNRPVYIPQPRPPHPRL]

MIC [17]: ≥ 51 µM
MIC [18]: ≥ 32 µM
MIC [19]: ≥ 64 µM
MIC [20]: ≥ 51 µM
MIC [21]: ≥ 64 µM
MIC [22]: ≥ 51 µM
MIC [23]: ≥ 445 µM
MIC [24]: 13 µM (≈ 29.2 µg/mL)
MIC [25]: 27.8 µM (≈ 62.5 µg/mL)
MIC [26]: ≥ 128 µM
MIC [27]: ≥ 55.6 µM
MIC [28]: ≥ 445 µM
MIC [29]: ≥ 111 µM
SMILES: CC[C@H](C)[C@H](NC(=O)[C@H](CCCCN)NC(=O)[C@@H](NC(=O)[C@H](CCC(N)=O)NC(=O)[C@@H](N)CCCNC(=N)N)[C@@H](C)CC)C(=O)N[C@@H](Cc1c[nH]c2ccccc12)C(=O)N[C@@H](Cc1ccccc1)C(=O)N[C@@H](CCC(N)=O)C(=O)N[C@@H](CC(N)=O)C(=O)N[C@@H](CCCNC(=N)N)C(=O)N[C@@H](CCCNC(=N)N)C(=O)N[C@@H](CCSC)C(=O)N[C@@H](CCCCN)C(=O)N[C@@H](Cc1c[nH]c2ccccc12)C(=O)N[C@@H](CCCCN)C(=O)N[C@@H](CCCCN)C(=O)O [RQIKIWFQNRRMKWKK]

MIC [31]: 0.3 µM (≈ 0.853 µg/mL)
MIC [32]: 0.59 µM (≈ 1.68 µg/mL)
MIC [33]: 0.3 µM (≈ 0.853 µg/mL)
SMILES: CC[C@H](C)[C@H](NC(=O)CNC(=O)CNC(=O)[C@@H]1CCCN1C(=O)[C@@H](N)[C@@H](C)O)C(=O)N[C@@H](CC(=O)O)C(=O)N[C@@H](Cc1ccccc1)C(=O)N[C@H](C(=O)N[C@@H](CO)C(=O)NCC(=O)NCC(=O)N1CCC[C@H]1C(=O)N[C@@H](Cc1cnc[nH]1)C(=O)N[C@H](C(=O)N[C@@H](C)C(=O)N[C@@H](CCC(N)=O)C(=O)N[C@@H](CC(=O)O)C(=O)N[C@H](C(=O)N[C@@H](CC(C)C)C(=O)N[C@@H](CC(N)=O)C(=O)N[C@@H](C)C(=O)N[C@H](C(=O)N[C@@H](CCCCN)C(=O)N[C@@H](CC(N)=O)C(=O)N[C@@H](Cc1ccccc1)C(=O)N[C@@H](Cc1ccccc1)C(=O)N[C@@H](CCCCN)C(=O)O)[C@@H](C)CC)C(C)C)C(C)C)[C@@H](C)CC [TPGGIDFISGGPHVAQDVLNAIKNFFK]
MIC [30]: 1.2 µM (≈ 3.41 µg/mL)

From DBAASP
